Experimental data from patent US11339130B1 (Blade Therapeutics, Inc., priority 2016, dated 2022).
Like-named read-outs stand apart in the source and are kept apart here.

Key:
[1] = tested on: Calpain activity in SH-SY5Y cells; test: SH-SY5Y + AMC fluorescence assay (Suc-LLVY-AMC substrate); assay type: cell-based; settings: read-out: SH-SY5Y + AMC IC50
Human Calpain 9/NS1 = target: T1, Human Calpain 9/NS1 (Homo sapiens, UniProt O14815); test: Calpain inhibition continuous fluorescence (FRET) assay, Human Calpain 9/NS1; assay type: biochemical; settings: read-out: Human Calpain 9/NS1 IC50
T1 sequence (O14815 1-690): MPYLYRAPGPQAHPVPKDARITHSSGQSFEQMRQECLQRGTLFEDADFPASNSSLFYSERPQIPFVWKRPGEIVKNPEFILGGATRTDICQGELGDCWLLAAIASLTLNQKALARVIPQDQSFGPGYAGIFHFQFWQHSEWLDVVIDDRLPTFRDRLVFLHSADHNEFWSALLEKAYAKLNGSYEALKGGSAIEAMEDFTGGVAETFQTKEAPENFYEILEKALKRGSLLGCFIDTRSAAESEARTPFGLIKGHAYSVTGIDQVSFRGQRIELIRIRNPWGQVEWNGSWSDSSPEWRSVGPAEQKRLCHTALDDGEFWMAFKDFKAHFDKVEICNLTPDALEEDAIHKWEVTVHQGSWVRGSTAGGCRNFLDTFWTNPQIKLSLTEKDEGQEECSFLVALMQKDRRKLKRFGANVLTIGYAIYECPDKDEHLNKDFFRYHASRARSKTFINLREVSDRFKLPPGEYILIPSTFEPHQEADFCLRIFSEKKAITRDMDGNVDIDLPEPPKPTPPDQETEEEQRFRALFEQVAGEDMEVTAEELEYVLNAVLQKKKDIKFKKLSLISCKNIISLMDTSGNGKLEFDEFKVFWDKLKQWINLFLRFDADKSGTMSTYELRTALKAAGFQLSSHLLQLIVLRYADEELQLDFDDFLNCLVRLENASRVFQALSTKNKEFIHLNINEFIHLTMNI
T1 sequence (P04632 1-268 partner): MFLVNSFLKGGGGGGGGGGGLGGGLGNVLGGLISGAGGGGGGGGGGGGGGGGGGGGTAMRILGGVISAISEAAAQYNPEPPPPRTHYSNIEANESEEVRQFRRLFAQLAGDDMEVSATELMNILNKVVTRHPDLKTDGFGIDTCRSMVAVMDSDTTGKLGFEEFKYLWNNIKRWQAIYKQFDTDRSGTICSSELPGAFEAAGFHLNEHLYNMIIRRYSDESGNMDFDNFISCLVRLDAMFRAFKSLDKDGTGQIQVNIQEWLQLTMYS
In short: (§1)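 Calpain activity is measured kinetically with a quenched FRET peptide in 50 mM Tris pH 7.5, 100 mM NaCl, 1 mM DTT, with CaCl2 triggering activation. Rates over 1-5 min are plotted against log inhibitor to obtain IC50 by 4-parameter logistic fitting.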

Human Calpain 2/NS1 = target: T2, Human Calpain 2/NS1 (Homo sapiens, UniProt P17655); test: Calpain inhibition continuous fluorescence (FRET) assay, Human Calpain 2/NS1; assay type: biochemical; settings: read-out: Human Calpain 2/NS1 IC50
T2 sequence (P17655 1-700): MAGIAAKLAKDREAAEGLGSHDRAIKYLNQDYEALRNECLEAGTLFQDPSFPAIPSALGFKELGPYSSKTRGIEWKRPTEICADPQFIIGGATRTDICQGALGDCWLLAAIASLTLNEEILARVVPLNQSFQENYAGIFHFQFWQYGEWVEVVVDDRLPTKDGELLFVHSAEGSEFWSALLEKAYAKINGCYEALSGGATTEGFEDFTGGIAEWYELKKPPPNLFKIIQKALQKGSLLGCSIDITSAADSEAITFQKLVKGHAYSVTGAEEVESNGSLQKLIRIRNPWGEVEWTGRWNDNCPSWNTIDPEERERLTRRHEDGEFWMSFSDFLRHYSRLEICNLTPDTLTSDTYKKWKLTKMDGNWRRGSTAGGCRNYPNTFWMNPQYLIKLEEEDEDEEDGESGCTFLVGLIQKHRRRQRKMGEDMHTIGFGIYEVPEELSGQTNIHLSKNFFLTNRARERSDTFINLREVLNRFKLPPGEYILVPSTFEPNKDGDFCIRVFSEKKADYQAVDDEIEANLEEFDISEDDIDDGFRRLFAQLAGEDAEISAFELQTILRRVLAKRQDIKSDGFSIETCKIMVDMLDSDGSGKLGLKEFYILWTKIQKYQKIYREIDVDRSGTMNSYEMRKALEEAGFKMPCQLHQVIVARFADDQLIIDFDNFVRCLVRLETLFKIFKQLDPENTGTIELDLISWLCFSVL
T2 sequence (P04632 1-268 partner): T1 sequence (P04632 1-268 partner)
In short: as §1

[2] = tested on: Calpain activity in SH-SY5Y cells (SBDP-150); test: SH-SY5Y Spectrin western blot assay (SBDP-150 breakdown product, A23187-induced); assay type: cell-based; settings: SH-SY5Y cells, read-out: SH-SY5Y Spectrin IC50
Human Calpain 1/NS1 = target: T3, Human Calpain 1/NS1 (Homo sapiens, UniProt P07384); test: Calpain inhibition continuous fluorescence (FRET) assay, Human Calpain 1/NS1; assay type: biochemical; settings: read-out: Human Calpain 1/NS1 IC50
T3 sequence (P07384 1-714): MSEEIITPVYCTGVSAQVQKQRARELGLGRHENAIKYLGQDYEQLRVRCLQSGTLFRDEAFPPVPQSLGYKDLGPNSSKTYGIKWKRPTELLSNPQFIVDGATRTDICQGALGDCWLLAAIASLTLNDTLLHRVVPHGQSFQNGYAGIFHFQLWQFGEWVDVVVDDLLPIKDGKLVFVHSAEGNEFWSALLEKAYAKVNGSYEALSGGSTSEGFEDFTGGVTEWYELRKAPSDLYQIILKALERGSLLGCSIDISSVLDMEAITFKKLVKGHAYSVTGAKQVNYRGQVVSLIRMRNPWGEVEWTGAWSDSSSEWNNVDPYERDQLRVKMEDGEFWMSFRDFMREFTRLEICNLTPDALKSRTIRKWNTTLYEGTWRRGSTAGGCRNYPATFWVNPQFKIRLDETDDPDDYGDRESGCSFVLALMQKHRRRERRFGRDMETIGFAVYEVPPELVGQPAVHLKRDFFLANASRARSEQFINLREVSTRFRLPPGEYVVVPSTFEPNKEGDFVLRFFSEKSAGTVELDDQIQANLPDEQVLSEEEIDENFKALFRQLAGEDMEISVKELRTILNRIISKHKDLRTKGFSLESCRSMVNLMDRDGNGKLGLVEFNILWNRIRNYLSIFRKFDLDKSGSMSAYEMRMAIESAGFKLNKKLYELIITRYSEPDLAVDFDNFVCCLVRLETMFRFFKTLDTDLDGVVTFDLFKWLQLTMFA
T3 sequence (P04632 1-268 partner): T1 sequence (P04632 1-268 partner)
In short: as §1

[3] = Homo sapiens, A23187-induced SBDP-150, western blot
[4] = Homo sapiens, Column D, A23187-induced SBDP-150

Row | Compound | IC50 [1] [µM] | IC50 (Human Calpain 9/NS1) [µM] | IC50 (Human Calpain 2/NS1) [µM] | IC50 [2, 3] [µM] | IC50 (Human Calpain 1/NS1) [µM] | IC50 ([1]; Column E) [µM] | IC50 (Human Calpain 9/NS1; Column C) [µM] | IC50 (Human Calpain 2/NS1; Column B) [µM] | IC50 [2, 4] [µM] | IC50 (Human Calpain 1/NS1; Column A) [µM] | IC50 ([2]; Column D, A23187-induced SBDP-150) [µM]
1 | Cc1cc(C(=O)N[C@@H](Cc2ccccc2)C(=O)C(N)=O)n(-c2nc3ccccc3n2C)n1 [Compound 294, (S)—N-(4-amino-3,4-dioxo-1-phenylbutan-2-yl)-3-methyl-1-(1-methyl-1H-benzo[d]imidazol-2-yl)-1H-pyrazole-5-carboxamide] |  |  |  |  |  | > 25 | < 3 | 3 to 10 | 10 to 25 | 3 to 10 | 
2 | NC(=O)C(=O)C(Cc1ccccc1)NC(=O)c1nsnc1-c1ccccn1 (stereo not drawn) [Compound 373, N-(4-amino-3,4-dioxo-1-phenylbutan-2-yl)-4-(pyridin-2-yl)-1,2,5-thiadiazole-3-carboxamide] | < 10 | < 3 | < 3 | < 10 | < 3 |  |  |  |  |  | 
3 | NC(=O)C(=O)[C@H](Cc1ccccc1)NC(=O)c1oc(C(F)(F)F)nc1-c1ccccc1 [Compound 255, (S)—N-(4-amino-3,4-dioxo-1-phenylbutan-2-yl)-4-phenyl-2-(trifluoromethyl)oxazole-5-carboxamide] |  |  |  |  |  | < 10 | < 3 | < 3 | < 10 | < 3 | 
4 | NC(=O)C(=O)C(Cc1ccccc1)NC(=O)c1nsnc1-c1ccncn1 (stereo not drawn) [Compound 374, N-(4-amino-3,4-dioxo-1-phenylbutan-2-yl)-4-(pyrimidin-4-yl)-1,2,5-thiadiazole-3-carboxamide] | < 10 | < 3 | < 3 | < 10 | < 3 |  |  |  |  |  | 
5 | CCc1cc(C(=O)N[C@@H](Cc2ccccc2)C(=O)C(N)=O)n(-c2ccccc2)n1 [Compound 33, (S)—N-(4-amino-3,4-dioxo-1-phenylbutan-2-yl)-3-ethyl-1-phenyl-1H-pyrazole-5-carboxamide] |  |  |  |  |  | < 10 | < 3 | < 3 | < 10 | < 3 | 
6 | Cc1ccc(-c2nn(C)cc2C(=O)N[C@@H](Cc2ccccc2)C(=O)C(N)=O)cc1 [Compound 166, (S)—N-(4-amino-3,4-dioxo-1-phenylbutan-2-yl)-1-methyl-3-(p-tolyl)-1H-pyrazole-4-carboxamide] |  |  |  |  |  | > 25 | < 3 | < 3 | 10 to 25 | < 3 | 
7 | NC(=O)C(=O)C(Cc1ccccc1)NC(=O)c1nsnc1-c1cccc(COCc2ccccc2)c1 (stereo not drawn) [Compound 370, N-(4-amino-3,4-dioxo-1-phenylbutan-2-yl)-4-(3-((benzyloxy)methyl)phenyl)-1,2,5-thiadiazole-3-carboxamide] | > 25 | < 3 | < 3 | 10 to 25 | < 3 |  |  |  |  |  | 
8 | NC(=O)C(=O)C(Cc1ccccc1)NC(=O)c1nsnc1-c1ccc2c(c1)C(=O)N(Cc1ccccc1)C2 (stereo not drawn) [Compound 378, N-(4-amino-3,4-dioxo-1-phenylbutan-2-yl)-4-(2-benzyl-3-oxoisoindolin-5-yl)-1,2,5-thiadiazole-3-carboxamide] | > 25 | < 3 | < 3 | < 10 | < 3 |  |  |  |  |  | 
9 | (S)—N-(4-amino-3,4-dioxo-1-phenylbutan-2-yl)-3-methyl-1-(5-methylpyridin-2-yl)-1H-pyrazole-5-carboxamide [Compound 121] |  |  |  |  |  | 10 to 25 | < 3 | < 3 |  | < 3 | < 10

Next, values leading:

Row | IC50 [1] [µM] | IC50 (Human Calpain 9/NS1) [µM] | IC50 (Human Calpain 2/NS1) [µM] | IC50 [2, 3] [µM] | IC50 (Human Calpain 1/NS1) [µM] | IC50 ([1]; Column E) [µM] | IC50 (Human Calpain 9/NS1; Column C) [µM] | IC50 (Human Calpain 2/NS1; Column B) [µM] | IC50 [2, 4] [µM] | IC50 (Human Calpain 1/NS1; Column A) [µM] | IC50 ([2]; Column D, A23187-induced SBDP-150) [µM] | Compound
10 | > 25 | 3 to 10 | < 3 | < 10 | 3 to 10 |  |  |  |  |  |  | Cc1nc(-c2ccccc2)c(C(=O)N[C@@H](Cc2ccccc2)C(=O)CF)o1 [Compound 475, (S)—N-(4-fluoro-3-oxo-1-phenylbutan-2-yl)-2-methyl-4-phenyloxazole-5-carboxamide]
11 | < 10 | < 3 | < 3 | < 10 | < 3 |  |  |  |  |  |  | Cc1occ(C(=O)N[C@@H](Cc2ccccc2)C(=O)C(N)=O)c1-c1ccccc1 [Compound 430, (S)—N-(4-amino-3,4-dioxo-1-phenylbutan-2-yl)-5-methyl-4-phenylfuran-3-carboxamide]
12 | < 10 | < 3 | < 3 | > 25 | < 3 |  |  |  |  |  |  | NC(=O)C(=O)C(Cc1ccccc1)NC(=O)c1cn(-c2ccc(F)cc2)nc1-c1ccccc1 (stereo not drawn) [Compound 529, N-(4-amino-3,4-dioxo-1-phenylbutan-2-yl)-1-(4-fluorophenyl)-3-phenyl-1H-pyrazole-4-carb oxamide]
13 | > 25 | < 3 | < 3 | > 25 | < 3 |  |  |  |  |  |  | Cc1cc(C(=O)NC(C=O)Cc2ccccc2)n(-c2ccccn2)n1 (stereo not drawn) [Compound 398, 3-methyl-N-(1-oxo-3-phenylpropan-2-yl)-1-(pyridin-2-yl)-1H-pyrazole-5-carboxamide]
14 | < 10 | < 3 | < 3 | < 10 | < 3 |  |  |  |  |  |  | NC(=O)C(=O)C(Cc1ccccc1)NC(=O)c1cn(C(F)F)nc1-c1cccc2ccccc12 (stereo not drawn) [Compound 547, N-(4-amino-3,4-dioxo-1-phenylbutan-2-yl)-1-(difluoromethyl)-3-(naphthalen-1-yl)-1H-pyrazole-4-carboxamide]
15 | < 10 | < 3 | < 3 | < 10 | < 3 |  |  |  |  |  |  | NC(=O)C(=O)C(Cc1ccccc1)NC(=O)c1cn(C(F)F)nc1-c1ccc2cnccc2c1 (stereo not drawn) [Compound 577, N-(4-amino-3,4-dioxo-1-phenylbutan-2-yl)-1-(difluoromethyl)-3-(isoquinolin-6-yl)-1H-pyrazole-4-carboxamide]
